Reference: publication PMC12154458, “High-Throughput Screens of Repurposing Hub and DOS Chemical Libraries Reveal Compounds with Novel and Potent Inhibitory Activity Against the Essential Non-Neuronal Acetylcholinesterase of Schistosoma mansoni (SmTAChE)” (International Journal of Molecular Sciences, 2025)
Read-outs that look alike come from different tables or passages of the source.

Key:
[1] = target: T1, rSmTAChE (Schistosoma mansoni, UniProt A0A3Q0KMM5); assay: biochemical
[2] = target: recombinant human acetylcholinesterase, rHsAChE (Homo sapiens, UniProt P22303); assay: biochemical
recombinant human acetylcholinesterase, rHsAChE, sequence (P22303 32-614): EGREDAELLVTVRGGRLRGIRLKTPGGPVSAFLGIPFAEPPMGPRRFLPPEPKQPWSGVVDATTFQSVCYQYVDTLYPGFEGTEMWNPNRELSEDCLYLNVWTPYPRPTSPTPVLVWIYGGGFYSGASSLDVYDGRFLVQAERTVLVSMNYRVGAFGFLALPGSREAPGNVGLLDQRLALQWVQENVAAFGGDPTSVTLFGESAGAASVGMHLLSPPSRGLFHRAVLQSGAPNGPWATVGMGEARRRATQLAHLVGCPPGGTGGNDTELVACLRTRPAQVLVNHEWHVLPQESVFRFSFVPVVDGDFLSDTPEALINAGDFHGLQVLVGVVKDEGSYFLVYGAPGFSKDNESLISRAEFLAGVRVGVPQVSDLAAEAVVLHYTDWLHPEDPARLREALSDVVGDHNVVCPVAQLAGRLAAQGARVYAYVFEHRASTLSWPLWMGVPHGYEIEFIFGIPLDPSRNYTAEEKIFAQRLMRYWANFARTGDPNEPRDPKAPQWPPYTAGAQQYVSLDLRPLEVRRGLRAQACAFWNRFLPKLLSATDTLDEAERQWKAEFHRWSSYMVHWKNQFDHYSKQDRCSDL

[3] = target: T1, rSmTAChE; type: biochemical; conditions: for IC50: read-out: qAC50 (IC50), rSmTAChE
[4] = read-out: qAC50 (IC50), rHsAChE
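For Inhibition (%) (Average) in this document: mostly 20 µM final but a few compounds at 5 or 10 µM.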
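For Inhibition (%) Replicate A in this document: mostly 20 µM final but a few compounds at 5 or 10 µM.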
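For Inhibition (%) Replicate B in this document: mostly 20 µM final but a few compounds at 5 or 10 µM.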

T1 sequence (A0A3Q0KMM5 27-661 limits assumed): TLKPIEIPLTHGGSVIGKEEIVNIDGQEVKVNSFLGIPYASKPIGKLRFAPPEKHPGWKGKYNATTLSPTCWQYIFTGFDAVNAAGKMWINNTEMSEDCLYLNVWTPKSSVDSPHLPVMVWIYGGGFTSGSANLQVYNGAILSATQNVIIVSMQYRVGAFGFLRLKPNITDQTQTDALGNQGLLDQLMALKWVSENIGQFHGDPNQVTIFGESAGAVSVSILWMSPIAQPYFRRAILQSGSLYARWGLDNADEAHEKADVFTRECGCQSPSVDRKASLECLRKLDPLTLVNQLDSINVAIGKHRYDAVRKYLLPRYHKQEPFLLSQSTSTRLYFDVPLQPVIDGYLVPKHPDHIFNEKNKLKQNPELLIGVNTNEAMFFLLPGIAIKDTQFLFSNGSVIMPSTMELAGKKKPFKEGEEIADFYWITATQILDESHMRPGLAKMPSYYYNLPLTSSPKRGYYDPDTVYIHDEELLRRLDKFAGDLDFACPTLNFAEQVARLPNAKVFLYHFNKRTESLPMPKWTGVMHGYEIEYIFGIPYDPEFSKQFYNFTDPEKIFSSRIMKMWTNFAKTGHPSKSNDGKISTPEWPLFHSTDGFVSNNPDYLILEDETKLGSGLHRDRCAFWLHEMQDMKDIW

## C=CCNc1nc(NCC=C)nc(N2CCN(C(c3ccc(F)cc3)c3ccc(F)cc3)CC2)n1 [BRD-K82677201-001-01-6]
[1]
  Inhibition (%) (Average): 71.59%
  Inhibition (%) Replicate A: 72.90%
  Inhibition (%) Replicate B: 70.28%
[2]
  Data Mode (curve class), rHsAChE: decreasing (weakly active)
[2]; [4]
  IC50: > 38 µM
[3]
  Data Mode (curve class), rSmTAChE: decreasing (weakly active)
  IC50: > 38 µM

## CCOC(=O)N1c2ccc(C(F)(F)F)cc2[C@@H](N(Cc2cc(C(F)(F)F)cc(C(F)(F)F)c2)C(=O)OC)C[C@H]1CC [BRD-K55675242-001-03-0]
[1]
  Inhibition (%) (Average): 71.11%
  Inhibition (%) Replicate A: 72.88%
  Inhibition (%) Replicate B: 69.34%
[2]
  Data Mode (curve class), rHsAChE: decreasing (weakly active)
[2]; [4]
  IC50: > 38 µM
[3]
  Data Mode (curve class), rSmTAChE: inactive

## CN(CCCCCCCCCCN(C)C(=O)Oc1cccc([N+](C)(C)C)c1)C(=O)Oc1cccc([N+](C)(C)C)c1 [Demecarium bromide, reference compound]
[1]; read-out: rSmTAChE HTS Inhibition (Ave, %)
  inhibition at 20 µM: 65.3%
[2]
  Data Mode (curve class), rHsAChE: decreasing
[2]; IC50 (µM) rHsAChE
  IC50: 0.02 µM
[2]; qAC50 (IC50), rHsAChE
  IC50: 0.0225 µM
[3]
  Data Mode (curve class), rSmTAChE: decreasing

## O=C(C[C@@H]1C=C[C@@H](NC(=O)c2ccncc2)[C@H](CO)O1)Nc1ccc(-c2ccccc2)cc1 [BRD-K45095313-001-01-2]
[1]
  Inhibition (%) (Average): 61.11%
  Inhibition (%) Replicate A: 60.65%
  Inhibition (%) Replicate B: 61.57%
[2]
  rHsAChE Data Mode: inactive
[3]
  rSmTAChE Data Mode: inactive

## C#C[C@]1(OC(C)=O)CC[C@H]2[C@@H]3CCC4=C[C@@H](OC(C)=O)CC[C@@H]4[C@H]3CC[C@@]21C [BRD-K46331928-001-05-8]
[1]
  Inhibition (%) (Average): 94.91%
  Inhibition (%) Replicate A: 95.51%
  Inhibition (%) Replicate B: 94.31%
[2]
  Data Mode (curve class), rHsAChE: inactive
[3]
  Data Mode (curve class), rSmTAChE: decreasing (weakly active)
  IC50: > 38 µM

## CCCC[C@@H](CC)COC(=O)/C=C/c1ccc(OC)cc1 [BRD-K19972289-001-01-4]
[1]
  Inhibition (%) (Average): 64.81%
  Inhibition (%) Replicate A: 66.96%
  Inhibition (%) Replicate B: 62.66%
[2]
  Data Mode (curve class), rHsAChE: decreasing
[2]; [4]
  IC50: 25.7 µM
[3]
  Data Mode (curve class), rSmTAChE: inactive

## Brc1cc2c(cc1[C@@H]1Nc3ccccc3[C@@H]3C=CC[C@@H]31)OCO2 [G15, reference compound]
[1]
  Inhibition (%) Replicate A: 75.36%
  Inhibition (%) Replicate B: 80.61%
[1]; 20 µM
  rSmTAChE HTS Inhibition (Ave, %): 77.99%
[2]
  Data Mode (curve class), rHsAChE: decreasing (weakly active)
  SI (Sm/Hs): 2.81
[2]; read-out: IC50 (µM) rHsAChE
  IC50: > 13.5 µM
[3]
  Data Mode (curve class), rSmTAChE: decreasing (weakly active)

## Cc1cc(Oc2ccc3nc(COc4ccc(CC5SC(=O)NC5=O)cc4)n(C)c3c2)cc(C)c1N (stereo not drawn) [BRD-A24560335-300-01-2]
[1]
  Inhibition (%) (Average): 64.01%
  Inhibition (%) Replicate A: 61.34%
  Inhibition (%) Replicate B: 66.67%
[2]
  Data Mode (curve class), rHsAChE: inactive
[3]
  Data Mode (curve class), rSmTAChE: decreasing (weakly active)
  IC50: > 38 µM

## O=C(O)c1ccc(-c2c[nH]c3ncc(-c4ccccc4)cc23)cc1C1CCCC1 [GSK-650394, reference compound]
[1]; read-out: HTS/rSmTAChE Inhibition (Ave, %)
  inhibition at 10 µM: 75.4%
[2]; IC50 (µM) rHsAChE
  IC50: 8.1 µM
[2]; dose response analysis of Drug Repurposing Hub hits against rHsAChE
  Data Mode (curve class), rHsAChE: decreasing
[2]; qAC50 (IC50), rHsAChE
  IC50: 8.09 µM
[3]
  Data Mode (curve class), rSmTAChE: decreasing
  SI (Hs/Sm): 3.46

## N#C[C@H]1[C@H](c2ccc(C3=CCCCC3)cc2)[C@@H](CO)N1S(=O)(=O)c1ccccc1 [BRD-K66729212-001-01-2]
[1]
  Inhibition (%) (Average): 61.17%
  Inhibition (%) Replicate A: 61.05%
  Inhibition (%) Replicate B: 61.28%
[2]
  rHsAChE Data Mode: inactive
[3]
  rSmTAChE Data Mode: inactive

## O=C(C[C@H]1C[C@H]2c3cc(NC(=O)Nc4ccc(C(F)(F)F)cc4)ccc3O[C@H]2[C@@H](CO)O1)NC1CCCCC1 [BRD-K18925241-001-01-0]
[1]
  Inhibition (%) (Average): 70.28%
  Inhibition (%) Replicate A: 62.39%
  Inhibition (%) Replicate B: 78.17%
[2]
  rHsAChE Data Mode: inactive
[3]
  rSmTAChE Data Mode: decreasing (weakly active)

## O=C(Nc1ccccc1Br)N[C@@H]1CCN(c2ccc(C(F)(F)F)cn2)C1 [BRD-K65991129-001-02-9]
[1]
  Inhibition (%) (Average): 65.52%
  Inhibition (%) Replicate A: 67.06%
  Inhibition (%) Replicate B: 63.99%
[2]
  Data Mode (curve class), rHsAChE: inactive
[3]
  Data Mode (curve class), rSmTAChE: inactive
